Patent publication US20190352610A1, “METHODS OF GENERATING HEPATIC MACROPHAGES AND USES THEREOF” (AGENCY FOR SCIENCE, TECHNOLOGY AND RESEARCH, priority 2017, published 2019)

Tests used:
[1] = test system: PHHs-hPSC-KCs co-cultures; test: Alamar Blue cell viability, PHHs-hPSC-KCs co-cultures; assay type: cell-based, human; conditions: 24 hours treatment, PHHs-hPSC-KCs co-cultures vs PHHs monocultures, FIG. 5B
Method: (§1) PHHs monocultures, PHHs-PHKCs co-cultures (FIG. 5A), PHHs-hPSC-KCs co-cultures (FIG. 5B) and PHHs-hPSC-Mac co-cultures (FIG. 5C) treated with LPS (solid lines) or left untreated (dashed lines) were exposed to Acetaminophen (APAP) 16 hours after LPS treatment. 24 hours after addition of the drug, cell viability was assayed using Alamar Blue. Cell viability is expressed as percentage of viable cells compared to vehicle control (DMSO). Data are presented as mean±s.d (n=3). * indicates statistically significant differences between LPS-activated monoculture and co-culture; # indicate statistically significant differences between non-activated monoculture and co-culture (p<0.05).
(§2) Previous reports have shown the suppression of CYP expression and activity in human and rat hepatocytes when co-cultured with Kupffer cells. […] Therefore, it was analyzed if differences could be identified between PHHs-PHKCs co-cultures and PHHs monocultures in toxicity responses to paradigm hepatotoxicants, and if this difference could be recapitulated in PHHs-hPSC-KCs or PHHs-hPSC-Mac co-cultures. The monocultures and co-cultures were treated with the paradigm hepatotoxicant acetaminophen for 24 hours, and cell viability was measured using Alamar Blue assay. Cell viability was quantified as percentage of […] compared to vehicle control (DMSO).

PHHs-NL-Mφ co-cultures = test: Alamar Blue cell viability, PHHs-NL-Mφ co-cultures; assay type: cell-based, human; conditions: 24 hours treatment, PHHs-NL-Mφ co-cultures vs PHHs monocultures, FIG. 5C
Method: as §1, §2

PHHs-PHKCs co-cultures = test: Alamar Blue cell viability, PHHs-PHKCs co-cultures; assay type: cell-based, human; conditions: 24 hours treatment, PHHs-PHKCs co-cultures vs PHHs monocultures, FIG. 5A
Method: as §1, §2

[2] = test system: primary human hepatocytes (PHHs); test: cytokine production (ELISA) upon LPS activation, PHHs; assay type: cell-based
Method: (§3) FIG. 3A are phase contrast images showing morphological changes in hPSC-KCs (upper panel) and NL-Mφ (lower panel) following LPS treatment. Scale bar: 100 μm. […] Supernatant from cell cultures were collected 16 hours after LPS treatment and cytokine production was measured using ELISA. IL-6 and TNF4α (after LPS treatment) production was not detected in PHHs. TNF4α production was not detected in NL-Mφ before LPS treatment. Data are presented after normalization to cell numbers and the bars represent mean±s.d. (n=3). Dashed lines represent fold differences between cytokine production before and after LPS treatment (folds are indicated on top of the dashed lines). Solid lines represent p<0.05 (two-tailed paired t-test). […] No significant differences were observed between IL-6 levels in hPSC-KCs and PHKCs in terms of basal levels (no LPS treatment) and LPS-induced levels. The fold increase in TNF4α production in hPSC-KCs (33 fold) was similar to the fold increase in PHKCs (35 fold). […] It has been reported that Kupffer cells show a lower extent of cytokine production upon cytokine stimulation.
(§4) For activation of hPSC-KCs to examine cytokine production, lipopolysaccharide (LPS) was added to the culture medium during the last 16 hours of culture. Medium was collected at the end of the incubation period and morphological changes and cytokine production upon LPS activation was analyzed. […]

[3] = test system: PHKCs (primary human Kupffer cells); test: cytokine production (ELISA) upon LPS activation, PHKCs; assay type: cell-based; conditions: LPS during last 16 hours of culture
Method: as §3, §4

hPSC-KCs = test: cytokine production (ELISA) and morphology upon LPS activation, hPSC-KCs; assay type: cell-based, human
Method: as §3
For activation of hPSC-KCs to examine cytokine production, lipopolysaccharide (LPS) was added to the culture medium during the last 16 hours of culture. Medium was collected at the end of the incubation period and morphological changes and cytokine production upon LPS activation was analyzed. […] The fold increase in TNF4α production in hPSC-KCs (33 fold) was similar to the fold increase in PHKCs (35 fold) (FIG. 3C).

[4] = test system: NL-Mφ (non-liver macrophages); test: cytokine production (ELISA) and morphology upon LPS activation, NL-Mφ; assay type: cell-based, human
Method: as §3, §4

CC(=O)Nc1ccc(O)cc1 [acetaminophen]
cell death compared to monoculture controls [1]: higher cell death
cell death compared to PHHs monocultures (PHHs-NL-Mφ co-cultures): No difference in cell death
cell death compared to monoculture controls (PHHs-PHKCs co-cultures): higher cell death

lipopolysaccharide [LPS]
IL-6 production ([2]; FIG. 3B): below detectable levels
TNF4α production ([2]; upon LPS activation): below detectable levels
fold induction of IL-6 production ([3]; FIG. 3B): 25 fold
fold increase in TNF4α production ([3]; FIG. 3C): 35 fold
morphological changes (hPSC-KCs; LPS activation, FIG. 3A): from round to flat and spread cells
fold induction of IL-6 production (hPSC-KCs; LPS during last 16 hours of culture, FIG. 3B): in the same range as that of the PHKCs
fold increase in TNF4α production (hPSC-KCs; LPS during last 16 hours of culture, FIG. 3C): 33 fold
levels of cytokines (IL-6, TNF4α) ([4]; NL-Mφ compared to PHKCs and hPSC-KCs, FIG. 3B and 3C): much higher levels
morphological changes ([4]; NL-Mφ, LPS activation, FIG. 3A): from round to flat and spread cells
